{"source": "patent US8048455B2", "about": "“Treatment of cancer and inflammatory disorder” (Academia Sinica, priority 2006, dated 2011)", "key": {"[1]": {"test_system": "NO production in LPS-activated RAW 264.7 macrophages", "test": "LPS-induced NO production in RAW 264.7 macrophages (Griess reaction)", "format": "cell-based, murine", "details": "Mus musculus, RAW264.7", "description": "RAW 264.7 cells were treated with compound for 1 hour, and then incubated for 24 hours with or without LPS. Nitrite levels in cell culture medium were determined using the Griess reaction (Chiang et al. Br J Pharmacol 2005; 146:352-63; Schmidt et al. Determination of nitrite and nitrate by the Griess reaction. In: Feelisch M, Stamler J S, editors. Methods In Nitric Oxide Research. New York: John Wiley & Sons Inc.; 1996. p. 491-'7). Cell viability was examined using the MTT based assay (Scudiero et al. Cancer Res 1988; 48:4827-33).\nRAW 264.7 macrophage cells were treated with or without various concentrations of CREa8 extract for 1 hour, then LPS (1 μg/ml) was added and incubated for 24 hours. […] NO in the culture medium was measured. Percentage of cell viability was also determined using MTT assay. The data represent 3 experiments and are expressed as mean±SD. […]\nThe inhibition of LPS-induced NO production by C. rabens extracts or purified dLGG was investigated in murine RAW 264.7 macrophages by determination of nitrite level (equivalent to NO level) in culture medium 24 hours after treatment. […] NO in the culture medium was measured using the Griess reagent. Survival of macrophages after treatment was measured using MTT assay and calculated by the following formula: viable cell number (%)=OD570 (treated cell culture)/0D570 (vehicle control)×100. […]"}, "IκBα": {"test_system": "IκBα", "test": "IκBα phosphorylation and degradation in LPS-stimulated RAW 264.7 cells (Western blot)", "format": "cell-based, murine", "details": "dLGG 1 h, LPS 1 μg/mL 30 min", "description": "(§1) Total cellular proteins and the specific cytosolic and nuclear proteins were prepared using methods described in Chiang et al. Protein content was measured by the Bradford method (Bio-Rad). Protein was resolved by 5-20% gradient SDS-PAGE and subjected to immunoblotting using enhanced chemiluminescence reagents (ECL, Amersham). Monoclonal antibodies against PARP (Transduction Laboratories, Lexington, Ky.), GA3PDH (Biogenesis, Poole, UK), α-tubulin (Oncogene Science, Cambridge, UK), COX-2 (Cayman Chemical), phospho-(Ser32)-IκBα, phospho-IKKα(Ser180)/IKKβ(Ser181) (New England Biolabs, Beverly, Mass.), iNOS, IκBα, IKKα/β or NF-κB p65 (RelA) (Santa Cruz Biotechnology, Santa Cruz, Calif.) were used.\nCells were treated with various concentrations of dLGG for 1 h followed by the addition of LPS (1 μg/mL) for 30 min. Western blots was then conducted using antibodies for IκBα or phospho-IκBα."}, "NO": {"test_system": "NO", "test": "Plasma nitrite concentration in SNP-treated mice", "format": "in vivo, Female ICR mice", "details": "topical pretreatment 30 min before SNP; dLGG 10 mg/site, PTIO 3.5 mg/site", "description": "Female ICR mice were topically treated on their shaven back area of a 2-cm diameter (3.14 cm^2/site/mouse) with vehicle control (acetone), SNP (positive control), or with dLGG or PTIO for 30 minutes before SNP application. Mouse plasma samples were subjected to determine the nitrite content followed a published method (Moshage et al. Clin Chem 1995; 41:892-6).\nTo examine the capability of dLGG to scavenge NO in vivo, the plasma NO concentration in SNP-insulted mice was determined with or without pretreatment with dLGG. Female ICR mice were transdermally treated with 200 μL acetone (vehicle control) or SNP (5.96 mg/site) only for 15 minutes, or pre-treated with dLGG (10 mg/site) or PTIO (3.5 mg/site) for 30 minutes before SNP treatment."}, "[2]": {"test_system": "LPS binding to LPS receptors on macrophages", "test": "Binding of FITC-labeled LPS to macrophages", "format": "cell-based, murine"}, "NF-κB (p65)": {"test_system": "NF-κB (p65)", "test": "NF-κB p65 nuclear translocation in LPS-stimulated RAW 264.7 cells (immunoblotting, confocal microscopy)", "format": "cell-based, murine", "description": "as §1\nRAW 264.7 cells were seeded in chamber slides for 1 hour, and then treated with DMSO or dLGG (75 μg/mL) for 1 hour, with or without LPS stimulation for an additional 90 minutes. The cells were fixed, permeabilized with 0.1% Triton X-100, and stained with Hoechst 33342 (DNA marker), FITC-labeled anti-α-tubulin Ab (cytoplasm marker), or rabbit anti-p65 antibody visualized with goat anti-rabbit Rhodamine Red-labeled secondary antibody for analysis with a Zeiss LSM 510 META confocal laser-scanning microscope.\nThe distribution of NF-κB (p65) in nucleus and cytoplasm was determined using immunoblotting. Cells were treated with various concentrations of dLGG for 1 hour and then stimulated with LPS (1 μg/mL) for another 90 min. Nuclear and cytosolic fractions were immunoblotted with p65 NF-κB antibody. A slight increase in nuclear p65 protein (1.5-fold) was detected when macrophages were treated with a low concentration of dLGG (5 μg/mL), compared to LPS alone (1.0). With higher concentrations of dLGG (25 to 75 μg/mL), the level of nuclear p65 decreased accordingly. Cytoplasmic levels of NF-κB (p65) were not affected by dLGG treatment of LPS-stimulated macrophages.\nThe effect of dLGG on NF-κB (p65) nuclear translocation was also examined by confocal microscopy. Macrophages were treated with 0.4% DMSO, or LPS (1 μg/mL) with or without dLGG (75 μg/mL), and stained with fluorescence-labeled antibodies against p65 (red). To distinguish nucleus from cytosol, cells were also stained with DNA-specific Hoechst 33342 (blue) and with anti-α-tubulin antibody (green). In vehicle-treated cells, p65 protein was mainly found in the cytosol of test cells."}, "iNOS protein": {"test_system": "iNOS protein", "test": "iNOS protein expression (immunoblotting) in LPS-stimulated RAW264.7 cells", "format": "cell-based, murine", "details": "LPS 1 μg/mL 18 h", "description": "as §1\nRAW264.7 cells were treated with the indicated concentrations of dLGG for 1 hour then LPS (1 μg/mL) was added for 18 hours. Total cellular protein (20 μg) was then subjected to immunoblotting. Quantification of iNOS mRNA and protein expression involved normalization to GA3PDH (internal control) by densitometry. […] Thus, the dLGG-induced inhibition of NO production in LPS-stimulated macrophages is also mediated through suppression of both transcription and translation of iNOS."}}, "note": "Like-named read-outs stand apart in the source and are kept apart here.", "data": [{"smiles": "CC/C=C\\C/C=C\\C/C=C\\CCCCCCCC(=O)OC[C@H](CO[C@@H]1O[C@H](CO)[C@H](O)[C@H](O)[C@H]1O)OC(=O)CCCCCCC/C=C\\C/C=C\\C/C=C\\CC", "note": "[dLGG, 1,2-di-O-α-linolenoyl-3-O-β-galactopyranosyl-sn-glycerol]", "values": [{"measurement": "IC50", "setting": "[1]; RAW 264.7, LPS 1 μg/mL 24 h, read-out: 50% inhibitory concentration for LPS-induced NO production", "value": "~14.7", "unit": "µM"}, {"measurement": "IC50", "setting": "[1]; RAW 264.7, compound 1 h then LPS 1 μg/mL 24 h, read-out: IC50 for inhibiting LPS-induced NO production", "value": "~11.4", "unit": "µg/mL"}, {"measurement": "IκBα degradation", "setting": "IκBα", "value": "prevented"}, {"measurement": "LPS-induced phosphorylation of IκBα", "setting": "IκBα", "value": "inhibited"}, {"measurement": "SNP-induced increase of nitrite plasma concentration", "setting": "NO", "value": "suppressed"}, {"measurement": "Binding of FITC-labeled LPS to the test macrophages", "setting": "[2]", "value": "dose-dependently suppress"}, {"measurement": "Nuclear p65 protein compared to LPS alone (1.0)", "setting": "NF-κB (p65); 5 μg/mL, LPS 90 min", "value": 1.5, "unit": "fold"}, {"measurement": "p65 nuclear translocation by confocal microscopy", "setting": "NF-κB (p65); 75 μg/mL, LPS 1 μg/mL", "value": "drastically inhibited"}, {"measurement": "Level of nuclear p65", "setting": "NF-κB (p65); 25 to 75 μg/mL, LPS 90 min", "value": "decreased"}, {"measurement": "Cytoplasmic levels of NF-κB (p65)", "setting": "NF-κB (p65); LPS-stimulated macrophages", "value": "not affected"}, {"measurement": "iNOS protein level", "setting": "iNOS protein", "value": "Little iNOS protein was detected"}]}]}
